Assays:
[1] = tested on: cone photoreceptor precursor and rod photoreceptor precursor in retinal tissue produced from human ES cells; experiment: Immunostaining for GFP (CRX::Venus), RXR-γ and NRL of retinal tissue, day 191-192, image analysis; format: cell-based; conditions: for proportion of rod photoreceptor precursor (Rod-like; NRL-positive) / proportion of cone photoreceptor precursor (Cone; RXR-γ-positive and NRL-negative): day 191-192, 100 nM LDN193189 or 100 nM SAG day 22 to day 100; for proportion of rod photoreceptor precursor (Rod-like; NRL-positive) / proportion of cone photoreceptor precursor (Cone; RXR-γ-positive and NRL-negative) / proportion of NRL-positive rod photoreceptor precursor among photoreceptor precursors versus Control group: 0.15 nM BMP4, 500 nM Cyclopamine-KAAD; for proportion of rod photoreceptor precursor (Rod-like; NRL-positive): Control (NUC) about 12.8%; for proportion of cone photoreceptor precursor (Cone; RXR-γ-positive and NRL-negative): Control (NUC) about 22.7%; for proportion of NRL-positive rod photoreceptor precursor among photoreceptor precursors versus Control group: 100 nM LDN193189, 100 nM SAG day 22 to day 100; for proportion of RXR-γ-positive cone photoreceptor precursor among photoreceptor precursors versus Control group: 500 nM Cyclopamine-KAAD or 100 nM SAG day 22 to day 100
Experimental: A cell aggregate containing a retinal tissue was prepared by the method described in “Kuwahara et al. Nat Commun 2015, 19(6), 6286-” after modification in part. That is, the aforementioned cultured ES cells were individually dispersed using TrypLE Express (Invitrogen), and the individually dispersed human ES cells were suspended in 100 μL of a serum-free medium in a cell non-adhesive 96 well plate (SUMILON spheroid plate, SUMITOMO BAKELITE CO., LTD.) at 9×10^3 cells per well to allow rapid formation of aggregates, after which they were cultured at 37° C., 5% CO2. As the serum-free medium therefor, a serum-free medium obtained by adding 10% KSR, 450 μM 1-monothioglycerol, 1× Chemically defined lipid concentrate, 5 mg/mL BSA, 20 μM Y27632 to a 1:1 mixture of F-12 medium and IMDM medium was used. At 6 days after the start of suspension culture, BMP4 at a final concentration of 1.5 nM was added and suspension culture was continued. A half amount of the culture medium in the well was exchanged with the above-mentioned medium not supplemented with a BMP signal transduction pathway agonist every 3 or 4 days. A cell aggregate containing a retinal tissue at day 18 from the start of suspension culture was cultured in suspension in a serum-free medium (DMEM/F12 medium supplemented with 1% N2 supplement) containing 3 μM CHIR99021 and 5 μM SU5402 for 4 days, namely, up to day 22 from the start of suspension culture. Thereafter, suspension culture of the cell aggregate containing the retinal tissue was continued until it was appropriately used for analysis and the like. As the culture medium during this period, serum-containing media shown in the following to [3] were used and the cell aggregate was cultured under 5% CO2 conditions.
[1] day 22 to day 38 from the start of suspension culture; DMEM/F12 medium supplemented with 10% fetal calf serum, 1% N2 supplement, and 100 μM taurine. day 38 to day 60 from the start of suspension culture; a 1:3 mixed medium of DMEM/F12 medium supplemented with 10% fetal calf serum, 1% N2 supplement, and 100 μM taurine, and Neurobasal medium supplemented with 10% fetal calf serum, 2% B27 supplement, and 100 μM taurine. after day 60 from the start of suspension culture; Neurobasal medium supplemented with 10% fetal calf serum, 2% B27 supplement, and 100 μM taurine.
[1] Control group (FIG. 3a, f, k, p); according to the method described in Example 1, cultured without addition up to day 191 from the start of suspension culture. [2]+BMP group (FIG. 3b, g, 1, q); 0.15 nM BMP4 was added from day 22 to day 100 from the start of suspension culture and cultured up to day 191 from the start of suspension culture. From day 100 to day 191 from the start of suspension culture, cultured in medium described in Example 1. [3]+Cyclopamine-KAAD group (FIG. 3c, h, m, r); 500 nM Cyclopamine-KAAD was added from day 22 to day 100 from the start of suspension culture, and cultured up to day 191 from the start of suspension culture. From day 100 to day 191 from the start of suspension culture, cultured in medium described in Example 1. [4]+LDN193189 group (FIG. 3d, i, n, s); 100 nM LDN193189 was added from day 22 to day 100 from the start of suspension culture, and cultured up to day 191 from the start of suspension culture. From day 100 to day 191 from the start of suspension culture, cultured in medium described in Example 1. [5]+SAG group (FIG. 3e, j, o, t); 100 nM SAG was added from day 22 to day 100 from the start of suspension culture, and cultured up to day 191 from the start of suspension culture. From day 100 to day 191 from the start of suspension culture, cultured in medium described in Example 1. […]

CYP26A1 gene = experiment: Quantitative PCR of CYP26A1 gene expression in retinal tissue; format: cell-based, human; conditions: about day 70, 0.15 nM BMP4 or 100 nM LDN193189 from day 22
Experimental: [1] Control group (FIG. 2a, f, k, p); according to the method described in Example 1, culture was performed up to day 70 or day 75 from the start of suspension culture and without addition. [2]+BMP group (FIG. 2b, g, 1, q); 0.15 nM BMP4 was added from day 22 from the start of suspension culture to completion of suspension culture, and cultured up to day 70 or day 75 from the start of suspension culture. [3]+Cyclopamine-KAAD group (FIG. 2c, h, m, r); 500 nM Cyclopamine-KAAD was added from day 22 from the start of suspension culture to completion of the suspension culture, and cultured up to day 70 or day 75 from the start of suspension culture. [4]+LDN193189 group (FIG. 2d, i, n, s); 100 nM LDN193189 was added from day 22 from the start of suspension culture to completion of the suspension culture, and cultured up to day 70 or day 75 from the start of suspension culture. [5]+SAG group (FIG. 2e, j, o, t); 100 nM SAG was added from day 22 from the start of suspension culture to completion of the suspension culture, and cultured up to day 70 or day 75 from the start of suspension culture.
On the other hand, using cDNA on about day 70 from the start of suspension culture, the expression level of CYP26A1 gene was analyzed. […]

[2] = tested on: photoreceptor precursor and cone photoreceptor precursor in retinal tissue produced from human ES cells; experiment: Immunostaining for CRX and TRβ2 and CRX::Venus fluorescence observation of retinal tissue, day 70-75 of suspension culture; format: cell-based

Row | Molecule | proportion of rod photoreceptor precursor (Rod-like; NRL-positive) [1] | proportion of cone photoreceptor precursor (Cone; RXR-γ-positive and NRL-negative) [1] | proportion of NRL-positive rod photoreceptor precursor among photoreceptor precursors versus Control group ([1]; day 191) | CRX::Venus-positive photoreceptor precursor ([1]; day 191, 500 nM Cyclopamine-KAAD day 22 to day 100) | proportion of RXR-γ-positive cone photoreceptor precursor among photoreceptor precursors versus Control group ([1]; day 191) | expression of CYP26A1 gene (CYP26A1 gene) | CRX::Venus-positive cells as compared with group added with 0.15 nM BMP4 ([2]; 0.45 nM BMP4 from day 22) | CRX::Venus-positive cells as compared with group added with 0.15 nM BMP4 ([2]; 1.35 nM BMP4 from day 22)
1 | CC1=C2C[C@H]3[C@@H](CC=C4CC(=O)CC[C@@]43C)[C@@H]2CC[C@]12O[C@@H]1C[C@H](C)CN(CCNC(=O)CCCCCNC(=O)CCc3ccccc3)[C@H]1[C@H]2C [Cyclopamine-KAAD] | about 11.5% | about 30.2% | decreased somewhat | can be increased | can increase |  |  | 
2 | c1ccc2c(-c3cnn4cc(-c5ccc(N6CCNCC6)cc5)cnc34)ccnc2c1 [LDN193189, 4-[6-(4-piperazin-1-ylphenyl)pyrazolo[1,5-a]pyrimidin-3-yl]quinoline] | about 14.0% | about 20.0% | increased |  |  | suppresses |  | 
3 | CNC1CCC(N(Cc2cccc(-c3ccncc3)c2)C(=O)c2sc3ccccc3c2Cl)CC1 (stereo not shown) [SAG] | about 17.2% | about 12.6% | increased |  | low |  |  | 
4 | BMP4: BMP protein; BMP signal transduction pathway agonist used as dorsalization signal transmitter | about 6.1% | about 31.3% | reduced |  |  | promotes | became less | became less
